Patent EP3653608A1, “ISOQUINOLINE BIARYL COMPOUNDS, A PHARMACEUTICAL COMPOSITION COMPRISING THE SAME, AND USES THEREOF” (Ludwig-Maximilians-Universität München, priority 2018, dated 2020)
Entries after “also recorded” stand apart in the source; their conditions may differ. Where two headings read alike, the source gives them in different places.

Assays:
[1] = human, 40 min, 2 uM
HL60 cell line = experiment: Antiproliferative MTT assay, HL60 cell line; type: cell-based; details: Homo sapiens, HL-60, 48 h incubation
microtubule network = experiment: Microtubule perturbation in cellulo, immunofluorescence staining of α-tubulin; type: cell-based, human; details: HeLa cells, 24 h incubation, A-2 in PBS, A-3 with 0.25% DMSO cosolvent
HeLa cell line = experiment: Antiproliferative MTT assay, HeLa cell line; type: cell-based; details: Homo sapiens
[2] = tested on: tubulin polymerisation dynamics; experiment: Inhibition of tubulin polymerisation dynamics in cellulo, confocal video microscopy of EB3-YFP comets; type: cell-based, human; details: 0.24 µM, live HeLa cells expressing EB3-YFP
Excerpt: In videos this marker manifests as bright well-defined moving "comets", and in still images as bright elongated streaks, when MTs are polymerising normally as in the control image (frame "ctrl"). […] "DMSO ctrl" denotes the cosolvent control for the A-3 images (i.e. 0.25% DMSO but no compound) while "PBS ctrl" denotes the control for the A-2 images (no compound or cosolvent applied); these controls show the expected structure of the microtubule network when no inhibition is applied.

HeLa cells = experiment: Cell cycle analysis by flow cytometry, propidium iodide staining; type: cell-based, human; details: 24 h incubation, propidium iodide DNA staining, phosphate
Balb/c mice = experiment: Safe dosing parameters in vivo in mice
CYP2D6 = CYP2D6 (Homo sapiens, UniProt P10635); experiment: in vitro; details: probe fluorogenic CYP substrate (not named)
Sequence of CYP2D6 (P10635 whole entry): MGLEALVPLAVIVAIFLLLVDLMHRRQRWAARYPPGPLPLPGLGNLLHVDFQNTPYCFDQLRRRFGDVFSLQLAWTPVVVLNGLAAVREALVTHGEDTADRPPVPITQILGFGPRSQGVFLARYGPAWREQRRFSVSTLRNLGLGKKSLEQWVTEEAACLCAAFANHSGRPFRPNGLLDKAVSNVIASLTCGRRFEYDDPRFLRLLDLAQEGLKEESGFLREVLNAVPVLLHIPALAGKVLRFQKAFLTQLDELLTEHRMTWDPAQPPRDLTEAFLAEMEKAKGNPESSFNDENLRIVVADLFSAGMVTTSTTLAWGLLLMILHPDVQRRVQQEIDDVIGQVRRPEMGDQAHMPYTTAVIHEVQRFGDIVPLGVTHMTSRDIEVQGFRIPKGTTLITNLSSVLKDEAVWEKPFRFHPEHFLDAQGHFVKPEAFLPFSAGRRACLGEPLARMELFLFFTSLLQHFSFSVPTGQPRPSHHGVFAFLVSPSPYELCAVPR

CYP2C9 = CYP2C9 (Homo sapiens, UniProt P11712); experiment: in vitro; details: probe fluorogenic CYP substrate (not named)
Sequence of CYP2C9 (P11712 whole entry): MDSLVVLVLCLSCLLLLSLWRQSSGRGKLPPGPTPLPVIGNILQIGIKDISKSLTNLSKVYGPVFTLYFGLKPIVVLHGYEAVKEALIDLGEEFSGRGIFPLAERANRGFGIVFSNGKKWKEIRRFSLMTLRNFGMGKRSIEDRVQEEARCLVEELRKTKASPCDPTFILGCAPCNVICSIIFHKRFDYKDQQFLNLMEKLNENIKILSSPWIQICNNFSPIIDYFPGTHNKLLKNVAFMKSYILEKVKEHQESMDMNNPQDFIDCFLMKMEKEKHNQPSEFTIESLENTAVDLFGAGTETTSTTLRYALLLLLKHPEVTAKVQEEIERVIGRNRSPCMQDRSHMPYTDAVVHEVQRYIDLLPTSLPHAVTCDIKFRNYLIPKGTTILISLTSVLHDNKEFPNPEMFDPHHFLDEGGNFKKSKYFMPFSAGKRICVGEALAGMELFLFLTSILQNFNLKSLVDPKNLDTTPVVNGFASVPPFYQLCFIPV

CYP3A4 = CYP3A4 (Homo sapiens, UniProt P08684); experiment: in vitro; details: probe fluorogenic CYP substrate (not named)
Sequence of CYP3A4 (P08684 whole entry): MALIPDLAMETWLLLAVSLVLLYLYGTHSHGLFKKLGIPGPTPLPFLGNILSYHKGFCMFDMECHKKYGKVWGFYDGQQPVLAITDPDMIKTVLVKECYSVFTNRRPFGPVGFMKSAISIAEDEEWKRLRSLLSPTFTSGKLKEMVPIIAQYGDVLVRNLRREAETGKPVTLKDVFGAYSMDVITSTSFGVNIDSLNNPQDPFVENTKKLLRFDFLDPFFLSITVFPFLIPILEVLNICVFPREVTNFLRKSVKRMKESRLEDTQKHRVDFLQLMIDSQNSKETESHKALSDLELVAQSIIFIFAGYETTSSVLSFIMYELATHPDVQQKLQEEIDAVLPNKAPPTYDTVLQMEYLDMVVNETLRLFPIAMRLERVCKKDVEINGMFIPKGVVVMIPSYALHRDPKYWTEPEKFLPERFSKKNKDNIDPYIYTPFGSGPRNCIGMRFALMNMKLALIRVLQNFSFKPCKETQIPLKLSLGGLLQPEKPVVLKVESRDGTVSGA

physchem = details: pH 7.4
[3] = Metabolic stability in mouse liver microsomes; details: 2 uM, over 40 minutes, 37°C
CYP1A2 = target: T1, CYP1A2 (Homo sapiens, UniProt P05177); experiment: Cytochrome P450 inhibition with fluorogenic substrate, CYP1A2; details: CYP1A2, 10 µM, 10 minute preincubation, 25 minute reaction
T1 sequence (P05177 1-516): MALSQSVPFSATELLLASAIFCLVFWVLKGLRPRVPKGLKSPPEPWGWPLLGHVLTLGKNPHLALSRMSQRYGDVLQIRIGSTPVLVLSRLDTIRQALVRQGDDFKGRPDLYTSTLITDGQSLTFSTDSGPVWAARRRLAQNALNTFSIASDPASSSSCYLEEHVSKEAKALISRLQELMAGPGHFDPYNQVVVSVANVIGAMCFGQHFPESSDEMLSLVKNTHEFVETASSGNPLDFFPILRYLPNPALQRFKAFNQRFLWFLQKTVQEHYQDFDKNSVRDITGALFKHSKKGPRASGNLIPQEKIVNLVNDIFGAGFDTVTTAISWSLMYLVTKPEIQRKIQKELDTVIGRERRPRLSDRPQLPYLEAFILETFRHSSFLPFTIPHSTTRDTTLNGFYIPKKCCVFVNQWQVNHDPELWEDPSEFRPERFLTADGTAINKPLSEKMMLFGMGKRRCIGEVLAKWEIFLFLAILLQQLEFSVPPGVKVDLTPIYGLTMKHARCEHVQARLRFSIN

CYP2C19 = CYP2C19 (Homo sapiens, UniProt P33261); experiment: Cytochrome P450 inhibition with fluorogenic substrate, CYP2C19; details: CYP2C19, 10 µM, 10 minute preincubation, 60 min reaction
Sequence of CYP2C19 (P33261 whole entry): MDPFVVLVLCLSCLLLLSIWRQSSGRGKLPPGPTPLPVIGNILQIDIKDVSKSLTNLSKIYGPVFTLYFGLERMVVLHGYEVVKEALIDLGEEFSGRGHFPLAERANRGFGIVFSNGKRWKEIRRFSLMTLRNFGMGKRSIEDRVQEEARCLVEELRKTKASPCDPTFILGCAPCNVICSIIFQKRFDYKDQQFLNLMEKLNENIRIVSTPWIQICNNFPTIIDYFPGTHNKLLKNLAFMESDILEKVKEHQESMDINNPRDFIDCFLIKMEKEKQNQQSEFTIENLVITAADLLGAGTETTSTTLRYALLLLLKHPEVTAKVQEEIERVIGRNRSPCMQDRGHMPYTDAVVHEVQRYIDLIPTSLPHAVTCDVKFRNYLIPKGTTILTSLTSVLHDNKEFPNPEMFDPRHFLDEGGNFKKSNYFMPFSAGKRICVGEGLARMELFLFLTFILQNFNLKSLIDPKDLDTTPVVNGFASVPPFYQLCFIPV

Cn1c(=O)c2c(ncn2C)n(C)c1=O [caffeine, reference compound]
degradation [1]: < 10%

COc1ccc2ccnc(-c3cc(OC)c(OC)c(OC)c3)c2c1 [A-3, 7-methoxy-1-(3,4,5-trimethoxyphenyl)isoquinoline]
IC50 (HL60 cell line): 280 nM
microtubule network perturbation (microtubule network): pronounced disorganisation and destruction of the microtubule network

COc1cc2c(-c3cc(OC)c(OC)c(OC)c3)nccc2cc1OP(=O)([O-])[O-].[Na+].[Na+] [A-2, disodium 7-methoxy-1-(3,4,5-trimethoxyphenyl)isoquinolin-6-yl phosphate]
IC50 (HeLa cell line; HeLa, 48 h): 130 nM
time until the comets stopped and vanished [2]: ≤ 0.5 min
microtubule network perturbation (microtubule network; phosphate): pronounced disorganisation and destruction of the microtubule network
cell cycle effect (HeLa cells): extensive cell cycle arrest leading to accumulation of cells in the G2/M phase; also recorded: dose-dependently causes accumulation of cells at the G2/M phase
tolerability (Balb/c mice; repeated dosage 25 mg/kg i.p., 3 administrations at 48-hour intervals, Balb/c mice): tolerated compound administration
tolerability (Balb/c mice; repeated dosage 25 mg/kg i.v., 3 administrations at 48-hour intervals, Balb/c mice): tolerated compound administration
tolerability (Balb/c mice; single dosage 31.5 mg/kg i.p., male and female Balb/c mice): tolerated by all mice tested
tolerability (Balb/c mice; single dosage 50 mg/kg i.v., male and female Balb/c mice): tolerated by all mice tested

COc1cc2c(-c3cc(OC)c(OC)c(OC)c3)nccc2cc1O [A-1, 7-methoxy-1-(3,4,5-trimethoxyphenyl)isoquinolin-6-ol]
IC50 (HL60 cell line): 100 nM
IC50 (HeLa cell line; HeLa cell line, MTT assay, 48 h incubation, read-out: IC50): 240 nM
degradation [1]: 31%
inhibition at 25 min, 10 µM (CYP2D6): 13 to 19%
inhibition at 25 min, 10 µM (CYP2C9): 13 to 19%
inhibition at 25 min, 10 µM (CYP3A4): 13 to 19%
logD (physchem): 2.18
degradation [3]: 33%
inhibition (CYP1A2): zero
apparent enhancement of activity (CYP2C19): 50%
